Measurements reported in patent US20250115569A1, “SULFONAMIDE COMPOUNDS FOR THE TREATMENT OF NEUROLOGICAL CONDITIONS” (LARIO THERAPEUTICS LIMITED, priority 2021, published 2025).

What follows are molecules tested on Human Cav2.3 channel (assay: Human Cav2.3 channel calcium-influx assay). Conditions: Fluo8 fluorescence, HEK-293 T-Rex/Kir2.1/Cav2.3e cells, without pluronic acid.
Format: cell-based
Procedure: HEK-293 T-Rex cells were transfected with pcDNA3.1-Kir2.1 to generate a stable cell line. After antibiotic selection, the obtained stable pools were analysed using FLIPR^TETRA (membrane potential assay), and a limiting dilution was performed and a HEK-293 T-Rex/Kir2.1 clone was selected. The clone was transfected with pcDNA3.1-Cav2.3e and pBud-Cav-β4-α2δ1 to generate a stable cell line where the Cav2.3e expression is inducible. After antibiotic selection, functional clone pool analysis and two successive limiting dilutions, the final clone underwent a qPCR analysis and a biophysical and pharmacological validation using patch-clamp.
A compound plate, containing 10 test compounds in eight-points dose response with n=4, was prepared. Test compounds dose response curves were prepared in automated fashion in 100% DMSO at CyBio Felix and starting from a stock solution in 100% DMSO; a defined volume was serially moved into destination wells pre-filled with the desired DMSO volume; stock solution concentration volumes were dependent on the final compounds concentrations to be tested and the final DMSO content used in the assay. For the assay test compounds dose response curves ranged from 30 μM and half log dilution with 0.3% final DMSO. In order to obtain the 8-points dose response curve all the concentrations were created by starting from a 10 mM DMSO stock solution and then moving 9.5 μL into a destination well pre-filled with 20.5 μL of 100% DMSO and repeating this step seven times. This initial step was done into 96 MTP plates, 10 compounds/plate. One 384 MTP was then reformatted to contain all the 10 compounds at 8 concentrations, quadruplicate data points. This so obtained 384 MTP compound plate served as source plate in a “mother to child” process with a CyBi®-Well dispenser in which 0.7 μL of compounds were moved into a destination plate pre-filled with 57.6 μL of Tyrode's buffer 0 mM K+, thus obtaining 4× concentrated compounds solution. In columns 1-2 and 23-24 the control wells were added. Both “source” compound plate and “destination” compound plate were barcoded and a relationship between the two plates was thus generated.
The day before the experiment, cells were detached by gentle wash with DPBS, followed by 5 min incubation at 37° C. with Trypsin solution. Detached cells were diluted with OptiMEM+Doxycycline at 0.2 μg/mL, counted and plated in Poly-D-Lysine coated black/clear bottom (15.000 c/well in 20 μl/well) by the use of a MATRIX WellMate dispenser. Plates were placed into a humidified incubator at 37° C. with 5% CO2 until the experimental day. 24 h after seeding 10 μL/well of 1.5× Fluo8 NW dye solution prepared in Tyrode's buffer 0 mM K* were added on top of the seeding medium. Cell plates were incubated for 40-60 min at RT in the dark. We then Injected off-line 10 μL/well of test compounds and controls 4× concentrated in Tyrode's Buffer 0 mM K+ with the CyBi®-Well instrument. Cell plates were incubated 3 minutes at RT. Finally, we injected 20 μL/well of 3× concentrated activator solution (K20-Na130-Ca2 buffer: 20 mM KCl, 130 mM NaCl, 2 mM CaCl2, 10 mM HEPES, 10 mM Glucose, final concentrations, prepared starting from “K0-Na150-Ca2” and “K150-Na0-Ca2” buffers) at FDSS7000EX instrument and read emitted fluorescence for 130 seconds.
Data analysis was performed with Genedata Screener® software and reported compounds activity as % effect in relation to the normalization standards. The Kinetic Response Value (KRV) is calculated as follows:
KRV=Maximal fluorescence recorded from second 5 to second 130 minus baseline fluorescence, computed as average from second 1 to second 2, of the kinetic trace. The KRV was normalized versus Neutral Controls and Inhibitor Controls in order to obtain the Activity[%] for each well. […] Therefore, the compound activity values were scaled (based on the two references) to a common range (two-point normalization). […]

Cav2.3 (pIC50) | Structure (SMILES)
6.69 | CCN([C@H](c1ccc(F)cc1)C(F)(F)F)S(=O)(=O)c1csc(C#N)c1 (stereo in doubt) [Example 43, 5-Cyano-N-ethyl-N-(2,2,2-trifluoro-1-(4-fluorophenyl)ethyl)thiophene-3-sulfonamide]
5.23 | CCN([C@@H](c1ccc(F)cc1)C(F)(F)F)S(=O)(=O)c1csc(C#N)c1 (stereo in doubt) [Example 44, 5-cyano-N-ethyl-N-(2,2,2-trifluoro-1-(4-fluorophenyl)ethyl)thiophene-3-sulfonamide]
6.31 | CCN(C(c1ccc(F)cc1)C(F)(F)F)S(=O)(=O)c1ccc(C#N)s1 (centres unmarked) [Example 3, 5-cyano-N-ethyl-N-(2,2,2-trifluoro-1-(4-fluorophenyl)ethyl)thiophene-2-sulfonamide]
6.22 | CN([C@H](c1ccc(F)cc1)C(F)(F)F)S(=O)(=O)c1ccc(C#N)s1 [Example 6, (R)-5-cyano-N-methyl-N-(2,2,2-trifluoro-1-(4-fluorophenyl)ethyl)thiophene-2-sulfonamide]
5.44 | CN([C@@H](c1ccc(F)cc1)C(F)(F)F)S(=O)(=O)c1ccc(C#N)s1 [Example 7, (S)-5-cyano-N-methyl-N-(2,2,2-trifluoro-1-(4-fluorophenyl)ethyl)thiophene-2-sulfonamide]
5.53 | CCN(C(c1ccc(F)cc1)C(F)(F)F)S(=O)(=O)c1ccc(C)s1 (centres unmarked) [Example 8, N-ethyl-5-methyl-N-(2,2,2-trifluoro-1-(4-fluorophenyl)ethyl)thiophene-2-sulfonamide]
5.66 | CCN([C@H](c1ccc(F)cc1)C(F)(F)F)S(=O)(=O)c1ccc(C)s1 [Example 10, (R)—N-ethyl-5-methyl-N-(2,2,2-trifluoro-1-(4-fluorophenyl)ethyl)thiophene-2-sulfonamide]
5.22 | Cc1ccc(S(=O)(=O)N(C)C(c2ccc(F)cc2)C(F)(F)F)s1 (centres unmarked) [Example 11, N,5-dimethyl-N-(2,2,2-trifluoro-1-(4-fluorophenyl)ethyl)thiophene-2-sulfonamide]
5.00 | Cc1ccc(S(=O)(=O)N(C)[C@@H](c2ccc(F)cc2)C(F)(F)F)s1 [Example 12, (S)—N,5-dimethyl-N-(2,2,2-trifluoro-1-(4-fluorophenyl)ethyl)thiophene-2-sulfonamide]
5.64 | CCN(C(c1ccc(F)cc1)C(F)(F)F)S(=O)(=O)c1ccc(F)s1 (centres unmarked) [Example 14, N-ethyl-5-fluoro-N-(2,2,2-trifluoro-1-(4-fluorophenyl)ethyl)thiophene-2-sulfonamide]
4.94 | CCN([C@@H](c1ccc(F)cc1)C(F)(F)F)S(=O)(=O)c1ccc(F)s1 [Example 15, (S)—N-ethyl-5-fluoro-N-(2,2,2-trifluoro-1-(4-fluorophenyl)ethyl)thiophene-2-sulfonamide]
5.78 | CCN([C@H](c1ccc(F)cc1)C(F)(F)F)S(=O)(=O)c1ccc(F)s1 [Example 16, (R)—N-ethyl-5-fluoro-N-(2,2,2-trifluoro-1-(4-fluorophenyl)ethyl)thiophene-2-sulfonamide]
5.15 | CN(C(c1ccc(F)cc1)C(F)F)S(=O)(=O)c1ccc(Cl)s1 (centres unmarked) [Example 23, 5-chloro-N-(2,2-difluoro-1-(4-fluorophenyl)ethyl)-N-methylthiophene-2-sulfonamide]
4.89 | CN(C)C(=O)c1ccc(S(=O)(=O)NC(c2ccc(F)cc2)C(F)(F)F)s1 (centres unmarked) [Example 24, N,N-dimethyl-5-(N-(2,2,2-trifluoro-1-(4-fluorophenyl)ethyl)sulfamoyl)thiophene-2-carboxamide]
7.49 | CCN(C(c1ccc(F)cc1)C(F)(F)F)S(=O)(=O)c1cncc(C#N)c1 (centres unmarked) [Example 26, 5-cyano-N-ethyl-N-(2,2,2-trifluoro-1-(4-fluorophenyl)ethyl)pyridine-3-sulfonamide]
6.18 | CCN(C(c1ccc(F)cc1)C(F)(F)F)S(=O)(=O)c1ccc2c(c1)COCC2 (centres unmarked) [Example 29, N-ethyl-N-(2,2,2-trifluoro-1-(4-fluorophenyl)ethyl)isochromane-7-sulfonamide]
6.62 | CCN(C(c1ccc(F)cc1)C(F)(F)F)S(=O)(=O)c1cccc(C#N)n1 (centres unmarked) [Example 30, 6-cyano-N-ethyl-N-(2,2,2-trifluoro-1-(4-fluorophenyl)ethyl)pyridine-2-sulfonamide]
6.43 | CCN(C(c1ccc(F)cc1)C(F)(F)F)S(=O)(=O)c1cc(C)c(Cl)s1 (centres unmarked) [Example 31, 5-chloro-N-ethyl-4-methyl-N-(2,2,2-trifluoro-1-(4-fluorophenyl)ethyl)thiophene-2-sulfonamide]
6.30 | CCN([C@H](c1ccc(F)cc1)C(F)(F)F)S(=O)(=O)c1cccc(C)n1 [Example 33, (R)—N-ethyl-6-methyl-N-(2,2,2-trifluoro-1-(4-fluorophenyl)ethyl)pyridine-2-sulfonamide]
6.20 | CCN([C@@H](c1ccc(F)cc1)C(F)(F)F)S(=O)(=O)c1cncc(C#N)c1 [Example 34, (S)-5-cyano-N-ethyl-N-(2,2,2-trifluoro-1-(4-fluorophenyl)ethyl)pyridine-3-sulfonamide]
6.58 | CCN(C(c1ccc(F)cc1)C(F)(F)F)S(=O)(=O)c1ccc2c(c1)COC2 (centres unmarked) [Example 36, N-ethyl-N-(2,2,2-trifluoro-1-(4-fluorophenyl)ethyl)-1,3-dihydroisobenzofuran-5-sulfonamide]
4.87 | CCN([C@@H](c1ccc(F)cc1)C(F)(F)F)S(=O)(=O)c1ccc2c(c1)COC2 [Example 37, (S)—N-ethyl-N-(2,2,2-trifluoro-1-(4-fluorophenyl)ethyl)-1,3-dihydroisobenzofuran-5-sulfonamide]
6.91 | CCN([C@H](c1ccc(F)cc1)C(F)(F)F)S(=O)(=O)c1ccc2c(c1)COC2 [Example 38, (R)—N-ethyl-N-(2,2,2-trifluoro-1-(4-fluorophenyl)ethyl)-1,3-dihydroisobenzofuran-5-sulfonamide]
5.82 | CCN(C(c1ccc(F)cc1)C(F)(F)F)S(=O)(=O)c1ccc2c(c1)OCC2 (centres unmarked) [Example 39, N-ethyl-N-(2,2,2-trifluoro-1-(4-fluorophenyl)ethyl)-2,3-dihydrobenzofuran-6-sulfonamide]
5.62 | CCN([C@H](c1ccc(F)cc1)C(F)(F)F)S(=O)(=O)c1ccc2c(c1)OCC2 [Example 40, (R)—N-ethyl-N-(2,2,2-trifluoro-1-(4-fluorophenyl)ethyl)-2,3-dihydrobenzofuran-6-sulfonamide]
4.72 | CCN([C@@H](c1ccc(F)cc1)C(F)(F)F)S(=O)(=O)c1ccc2c(c1)OCC2 [Example 41, (S)—N-ethyl-N-(2,2,2-trifluoro-1-(4-fluorophenyl)ethyl)-2,3-dihydrobenzofuran-6-sulfonamide]
6.90 | CCN(C(c1ccc(F)cc1)C(F)(F)F)S(=O)(=O)c1csc(C#N)c1 (centres unmarked) [Example 42, 5-Cyano-N-ethyl-N-(2,2,2-trifluoro-1-(4-fluorophenyl)ethyl)thiophene-3-sulfonamide]
6.07 | CCN(C(c1ccc(F)cc1)C(F)(F)F)S(=O)(=O)c1sc(C#N)cc1C (centres unmarked) [Example 45, 5-Cyano-N-ethyl-3-methyl-N-(2,2,2-trifluoro-1-(4-fluorophenyl)ethyl)thiophene-2-sulfonamide]
6.33 | CCN(C(c1ccc(F)cc1)C(F)(F)F)S(=O)(=O)c1cnc(C)c(C#N)c1 (centres unmarked) [Example 55, 5-cyano-N-ethyl-6-methyl-N-(2,2,2-trifluoro-1-(4-fluorophenyl)ethyl)pyridine-3-sulfonamide]
